Data: patent publication US10639287B2, “Compounds for the treatment of mitochondrial diseases” (UNIVERSITE PARIS-SUD, priority 2014, dated 2020)

Tests used:
[1] = Maximum solubility in yeast culture; assay type: physicochemical; details: 28 °C; in YPD yeast culture; read-out: maximum concentration (maximum solubility)
Experimental: From o/n pre-culture in selective medium (SC-URA, 2% ethanol (v/v)), 50 mL of rich YPD medium (1% Yeast Extract, 0.5% Bacto Peptone, 2% Glucose) were seeded at a DO600 of 0.05/mL. The 50 mL of culture were distributed in a series of ten tubes on the basis of 2 mL of culture/tube, with 4 mL of culture being placed in the last tube. […] From this tube (tube 1), 2 mL of culture were placed into tube 2. Tube 2 contained 4 ml of culture and clofilium tosylate at a concentration of 256 μM. 2 mL of tube 2 were added to tube 3, and so on. Each tube contained the drug at a concentration equal to half that of the previous tube. Two controls were provided—without clofilium tosylate and with DMSO (the volume being the same as that used to dilute the clofilium tosylate). The cultures were incubated at 28° C. with stirring for 24 hours, and the optical density (DO600) was measured.

[2] = test system: fibroblasts from a patient with a mutation on each allele of the POLG gene; experiment: Amount of mtDNA (qPCR) in patient fibroblasts, cell growth conditions; assay type: cell-based, human; details: 2.5 μM, DMEM high glucose, harvested at 100% confluence
Experimental: Skin fibroblasts from the control and from the patient were cultured to 100% confluence in a complete Dulbecco's Modified Eagle Medium (DMEM) high glucose medium (4.5 g/L of D-glucose, 110 mg/L sodium pyruvate, 10% foetal bovine serum, 1% penicillin/streptomycin from the stock solution containing 10,000 I.U. penicillin and 10,000 μg/mL streptomycin) at 37° C. under 5% CO2. At confluence, the cultures were trypsinised and placed back in culture at 30% confluence in a complete DMEM high glucose medium supplemented with either 0.1% DMSO or with 2.5 μM clofilium tosylate. They were incubated at 37° C. under 5% CO2 and harvested at 100% confluence. The total fibroblast DNAs were extracted by the phenol-chloroform method, and the mtDNA and nuclear DNA were quantified by qPCR as described in Sarzi et al., 2007 (Sarzi, E., Bourdon, A., Chrétien, D., Zarhrate, M., Corcos, J., Slama, A., Cormier-Daire, V., De Lonlay, P., Munnich, A. and Rötig, A. (2007) Mitochondrial DNA Depletion is a Prevalent Cause of Multiple Respiratory Chain Deficiency in Childhood. J Pediatr, 105, 531-534).

[3] = test system: polg-1(ok1458Δ/+) strain; experiment: Non-toxic concentration (MIC) in nematode, larval development over 4 days, polg-1 mutated line; assay type: in vivo, Caenorhabditis elegans; details: 1 μM to 50 μM
Experimental: A series of NGM dishes containing clofilium tosylate at concentrations of 1 μM, 5 μM, 10 μM, 50 μM, 100 μM or 200 μM were prepared (three dishes for each concentration). Between 30 and 40 synchronised L1 larvae of the wild-type N2 BRISTOL line or mutated VC1224 line (polg-1(ok1458Δ/+)/mT1 II; +/mT1 [dpy-10(el28)] II), these being nematodes carrying a heterozygous deletion of 2149 bp in the sequence encoding the polg-1 gene, were deposited on each of these dishes.

CCCCCCC[N+](CC)(CC)CCCCc1ccc(Cl)cc1.Cc1ccc(S(=O)(=O)[O-])cc1 [clofilium tosylate]
solubility [1]: 512 µM
amount of mtDNA, cell growth conditions [2]: slightly increased
larval development [3]: developed similarly
